In brackets after ≈: the same amount, converted by molar mass. Several values for one entry are separate records, joined by “and”; a condition that tells them apart may be missing. Identical values can stand only once. Like-named read-outs stand apart in the source and are kept apart here.
Experiments:
M. tuberculosis H37Rv [1] = test: microbe, parasite or virus in culture; type: cell-based, Mycobacterium tuberculosis; details: for MIC: Mycobacterium tuberculosis, H37RV
[2] = test system: COX1 production (mitochondrial ribosomes) in HepG2 cells; test: cells; details: Homo sapiens
Protocol: (§1) Cells were trypsinized in 0.05% trypsin-EDTA (Gibco) and re-suspended in 10 mL growth medium. Cells were filtered through a 40 µm filter and seeded in collagen-coated 96-well plates (Life technologies #A11428-03) at 3500 cells/well in a volume of 170 µL/well with plates agitated upon cell addition to ensure even distribution. […] The plates were incubated an additional 72 h after which the medium was gently aspirated and replaced with 4% paraformaldehyde (100 µL/well) prepared in Dulbecco’s PBS. After 20 min fixation, the medium was removed, and wells washed three times with 200 µL/well PBS. Wells were treated for 5 min with 0.5% acetic acid (100 μL/well), wells were washed with 200 μL/well PBS and subsequently treated with permeabilization buffer (0.1 % Triton X-100) (100 μL/well) for 30 min. Buffer was removed and replaced with 2× blocking buffer from the ab110217 MitoBiogenesis™ In-Cell ELISA Kit (Abcam). After 2 h incubation, primary antibody was added (100 μl/well) in 1× blocking buffer per manufacturer’s recommendation except for the background control wells which received 100 μl/well 1× blocking buffer only. […] Alkaline phosphatase/horse radish peroxidase-labeled secondary antibody solution prepared according to the manufacturer’s instructions in 1× blocking buffer was added at 100 μl/well to all wells. After 1 h incubation, wells were washed 4 times with wash buffer (200 μl/well) followed by addition of 100 μl/well freshly prepared per manufacturer’s recommendation alkaline peroxidase development solution. […] The reagent was removed, and 100 μl/well horse radish peroxidase development solution added. […] The development solution was completely removed, and plates blotted to dryness after which 1× Janus green stain (50 μl/well) was added. […] Data was interpreted per manufacturer’s instructions and plotted in GraphPad Prism to calculate IC20 and IC50 values for Cox-I/SDHA and cell viability.

HepG2 cells [3] = test system: HepG2 cells
[4] = test system: SDHA production (cytoplasmic ribosomes) in HepG2 cells; test: cells; details: Homo sapiens
Protocol: as §1

in vitro = details: human, HepG2 IC50 (cytotoxicity)
HepG2 cells [5] = test: cells; type: cell-based; details: Homo sapiens
Protocol: as §1

[6] = test system: COX1 production (mitochondrial ribosomes) in HepG2 cells; details: for COX1 production: human; for IC50: read-out: Cox IC50
Protocol: as §1

[7] = test system: M. tuberculosis H37Rv:luc within THP1 monocytes; test: microbe, parasite or virus in culture; type: cell-based; details: Mycobacterium tuberculosis
[8] = test system: SDHA production (cytoplasmic ribosomes) in HepG2 cells
Protocol: as §1

HepG2 cells [9] = test: cells; details: Homo sapiens
[10] = test system: lysine biosynthetic pathway metabolites in M. tuberculosis; type: cell-based, Mycobacterium tuberculosis
M. tuberculosis H37Rv [11] = test system: M. tuberculosis H37Rv
M. tuberculosis H37Rv [12] = type: cell-based, Mycobacterium tuberculosis; design: MIC, No Lysine / MIC, No Lysine, Ave: unit not given beside the values
M. tuberculosis H37Rv [13] = test system: M. tuberculosis H37Rv; design: species or system C57BL/6 mice; details: in vivo, 30 mg/kg
M. tuberculosis = test system: M. tuberculosis; design: species or system C57BL/6 mice; details: in vivo, 100 mg/kg
M. tuberculosis H37Rv [14] = test system: M. tuberculosis H37Rv; design: species or system BALB/c mice; details: in vivo

Nc1cc2c(c(F)n1)C(=O)N(C1CCCCC1)C2 [Compound 2]
WT MIC (M. tuberculosis H37Rv [1]): 0.74 µM | MIC (M. tuberculosis H37Rv [1]; read-out: MIC (µM), single replicate): 0.6 µM (≈ 0.15 µg/mL) | MIC (M. tuberculosis H37Rv [1]; read-out: MIC, Geo Mean): 0.6 µM (≈ 0.15 µg/mL) | MIC (M. tuberculosis H37Rv [1]; read-out: MIC, Mean): 0.6 µM (≈ 0.15 µg/mL) | MIC (M. tuberculosis H37Rv [1]; read-out: MIC, Median): 0.6 µM (≈ 0.15 µg/mL) | MIC (M. tuberculosis H37Rv [1]; read-out: WT MIC): 0.89 µM (≈ 0.222 µg/mL) | MIC (M. tuberculosis H37Rv [1]; read-out: WT MIC, Ave): 0.82 µM (≈ 0.204 µg/mL) | IC50 ([2]; HepG2, read-out: Cox IC50): 2.67 µM | IC50 ([2]; HepG2, read-out: Cox IC50, Ave): 3.6 µM | IC50 (HepG2 cells [3]): 7.94 µM | IC50 ([4]; HepG2, read-out: SDH-A IC50): 3.04 µM | IC50 ([4]; HepG2, read-out: SDH-A IC50, Ave): 3.3 µM | IC50 (in vitro): 11 µM | IC50 (HepG2 cells [5]; HepG2, read-out: JG IC50, Ave): 3.3 µM | COX1 production [6]: blocked expression of both COX1 and SDHA | IC50 [6]: 3.54 µM and 4.59 µM and 3.47 µM | MIC [7]: 0.71 µM (≈ 0.177 µg/mL) | SDHA production ([8]; human): blocked expression of both COX1 and SDHA | IC50 ([8]; read-out: SDH-A IC50): 2.89 µM and 3.53 µM and 3.87 µM | IC50 (HepG2 cells [9]; HepG2, read-out: IC50 (µM), Geo Mean): 10.7 µM | IC50 (HepG2 cells [9]; HepG2, read-out: IC50 (µM), Mean): 11.8 µM

Nc1ncc2c(n1)CC(C1CCC1)C2=O (centres unmarked) [Compound 9]
Acetyl-amino-oxopimelate, Raw data [10]: 6696.89 and 6125.64 and 5614.65 | Acetyl-aminoadipate, Raw data [10]: 373220.66 and 356398.25 and 363487.19 | Acetyl-diaminopimelate, Raw data [10]: 268291.72 and 294087.29 and 265596.05 | Allysine, Raw data [10]: 6339.98 and 6256.07 and 3388.68 | Amino-oxoheptanedioate, Raw data [10]: 67628.76 and 66386.61 and 73890.51 | Aminoadipate, Raw data [10]: 230713.39 and 278620.19 and 273252.31 | Glutamic acid, Raw data [10]: 95052793.71 and 89933952.73 and 93441271.33 | Lysine or Methylornithine, Raw data [10]: 376867.18 and 321105.18 and 351101.87 | Saccharopine, Raw data [10]: 4344892.84 and 4372904.79 and 3935929.36 | Succinyl-diaminopimelate, Raw data [10]: 61950.05 and 84823.10 and 63130.16 | diaminopimelate, Raw data [10]: 182757.00 and 205469.42 and 201059.38

CC(=O)NC[C@H]1CN(c2ccc(N3CCOCC3)c(F)c2)C(=O)O1 [Linezolid, linezolid]
IC50 ([4]; HepG2, read-out: SDH-A IC50): > 100 µM | IC50 (HepG2 cells [5]; HepG2, read-out: JG IC50): > 100 µM | COX1 production [6]: selective inhibition of COX1 production | CFU/ml, Day 0 (M. tuberculosis H37Rv [11]): 103000 CFU/ml | CFU/ml, Day 2 (M. tuberculosis H37Rv [11]): 400000 CFU/ml and 600000 CFU/ml | CFU/ml, Day 4 (M. tuberculosis H37Rv [11]): 140000 CFU/ml and 70000 CFU/ml | CFU/ml, Day 7 (M. tuberculosis H37Rv [11]): 70000 CFU/ml and 53000 CFU/ml | CFU/ml, Day 14 (M. tuberculosis H37Rv [11]): 8600 CFU/ml and 7100 CFU/ml

COc1c(N2C[C@@H]3CCCN[C@@H]3C2)c(F)cc2c(=O)c(C(=O)O)cn(C3CC3)c12 [Moxifloxacin]
MIC, +1mM Lysine (M. tuberculosis H37Rv [12]): 2.04 and 3.47 | MIC, +1mM Lysine, Ave (M. tuberculosis H37Rv [12]): 2.75 | MIC, No Lysine (M. tuberculosis H37Rv [12]): 1.02 and 1.45 | MIC, No Lysine, Ave (M. tuberculosis H37Rv [12]): 1.23 | logCFUs per mouse (lungs) (M. tuberculosis H37Rv [13]): 3.2 logCFUs per mouse and 3.3 logCFUs per mouse (2×) and 2.4 logCFUs per mouse and 2.9 logCFUs per mouse and 3.5 logCFUs per mouse and 3.8 logCFUs per mouse (2×) and 2.6 logCFUs per mouse | logCFUs per mouse (lungs), Mean (M. tuberculosis H37Rv [13]): 3 logCFUs per mouse and 3.4 logCFUs per mouse | logCFUs per mouse (lungs) (M. tuberculosis): 2.5 logCFUs per mouse (2×) and 2.3 logCFUs per mouse and 1.9 logCFUs per mouse and 2.2 logCFUs per mouse | logCFUs per mouse (lungs), Mean (M. tuberculosis): 2.3 logCFUs per mouse

O=[N+]([O-])c1cn2c(n1)OC[C@@H](OCc1ccc(OC(F)(F)F)cc1)C2 [Pa, pretomanid]
logCFUs per mouse (lungs) (M. tuberculosis H37Rv [14]): 4.68 logCFUs per mouse and 4.53 logCFUs per mouse and 4.19 logCFUs per mouse and 4.48 logCFUs per mouse and 4.10 logCFUs per mouse | logCFUs per mouse (lungs), Mean (M. tuberculosis H37Rv [14]): 4.4 logCFUs per mouse | change in lung CFU over the treatment period (M. tuberculosis H37Rv [14]; mouse): significant decrease in CFU

CO[C@H]1/C=C/O[C@@]2(C)Oc3c(C)c(O)c4c(O)c(c(/C=N/N5CCN(C)CC5)c(O)c4c3C2=O)NC(=O)/C(C)=C\C=C\[C@H](C)[C@H](O)[C@@H](C)[C@@H](O)[C@@H](C)[C@H](OC(C)=O)[C@@H]1C [Rifampicin, rifampicin]
CFU/ml, Day 0 (M. tuberculosis H37Rv [11]): 103000 CFU/ml | CFU/ml, Day 2 (M. tuberculosis H37Rv [11]): 270000 CFU/ml and 190000 CFU/ml | CFU/ml, Day 7 (M. tuberculosis H37Rv [11]): 5000 CFU/ml and 5100 CFU/ml | CFU/ml, Day 14 (M. tuberculosis H37Rv [11]): 440 CFU/ml and 430 CFU/ml

O=C(N[C@H](CO)[C@H](O)c1ccc([N+](=O)[O-])cc1)C(Cl)Cl [chloramphenicol]
IC50 ([2]; HepG2, read-out: Cox IC50): 5.11 µM | IC50 ([2]; HepG2, read-out: Cox IC50, Ave): 4.6 µM | IC50 ([4]; HepG2, read-out: SDH-A IC50): > 100 µM | IC50 (HepG2 cells [5]; HepG2, read-out: JG IC50): > 100 µM | COX1 production [6]: selective inhibition of COX1 production | IC50 [6]: 4.44 µM and 3.97 µM and 4.95 µM

NNC(=O)c1ccncc1 [isoniazid]
MIC, +1mM Lysine (M. tuberculosis H37Rv [12]): 2.82 and 2.63 | MIC, +1mM Lysine, Ave (M. tuberculosis H37Rv [12]): 2.72 | MIC, No Lysine (M. tuberculosis H37Rv [12]): 3.02 and 3.39 | MIC, No Lysine, Ave (M. tuberculosis H37Rv [12]): 3.20
